Laboratory results taken from ChEMBL document CHEMBL1153136, “Novel benzoylpiperidine-based stearoyl-CoA desaturase-1 inhibitors: Identification of 6-[4-(2-methylbenzoyl)piperidin-1-yl]pyridazine-3-carboxylic acid (2-hydroxy-2-pyridin-3-ylethyl)amide and its plasma triglyceride-lowering effects in Zucker fatty rats” (Bioorg Med Chem Lett, 2010).
pIC50: −log10 of the molar value. In brackets after ≈: the same amount, converted by molar mass. Activity calls are given as the source filed them. The rule behind the calls is not given here.

What was measured:
[1] = molecular target: T1, Stearoyl-CoA desaturase (Homo sapiens) (UniProt O00767); test: Inhibition of human Scd1 assessed as conversion of [14C]stearate to [14C]oleate at 10 uM pretreated for 30 mins measured after 4 hrs
T1 sequence (whole entry): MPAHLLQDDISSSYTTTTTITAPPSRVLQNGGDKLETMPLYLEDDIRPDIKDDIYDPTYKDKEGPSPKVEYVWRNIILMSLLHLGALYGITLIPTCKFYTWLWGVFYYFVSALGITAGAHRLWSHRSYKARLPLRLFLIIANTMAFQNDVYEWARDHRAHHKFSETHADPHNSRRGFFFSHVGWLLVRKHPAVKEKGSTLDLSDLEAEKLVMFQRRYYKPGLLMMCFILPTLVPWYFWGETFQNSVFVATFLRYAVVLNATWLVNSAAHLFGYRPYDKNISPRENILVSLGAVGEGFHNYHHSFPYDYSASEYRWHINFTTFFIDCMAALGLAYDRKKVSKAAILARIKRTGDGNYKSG

[2] = Metabolic stability in mouse liver S9 fraction assessed as compound remaining after 30 mins; assay type: ADME, subcellular; conditions: read-out: Stability
[3] = Solubility in aqueous acidic solution at pH 1.2; assay type: physicochemical
[4] = Solubility in neutral solution at pH 6.8; assay type: physicochemical
[5] = molecular target: T2, Acyl-CoA desaturase 1 (Mus musculus, UniProt P13516); test: Inhibition of Scd1 in mouse liver microsomes assessed as conversion of [14C]stearate to [14C]oleate pretreated for 10 mins measured after 60 mins; set-up: species or system Microsome
T2 sequence (P13516 whole entry): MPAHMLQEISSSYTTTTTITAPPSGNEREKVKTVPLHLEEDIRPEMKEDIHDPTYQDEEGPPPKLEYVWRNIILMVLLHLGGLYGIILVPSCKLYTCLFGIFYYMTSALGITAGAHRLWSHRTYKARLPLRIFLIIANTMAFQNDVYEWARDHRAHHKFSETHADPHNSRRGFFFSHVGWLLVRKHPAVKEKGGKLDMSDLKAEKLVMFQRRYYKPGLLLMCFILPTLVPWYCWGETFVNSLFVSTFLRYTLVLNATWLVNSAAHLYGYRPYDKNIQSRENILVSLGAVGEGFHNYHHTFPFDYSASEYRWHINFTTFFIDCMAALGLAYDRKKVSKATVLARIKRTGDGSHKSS

[6] = molecular target: T3, Stearoyl-CoA desaturase (Homo sapiens, UniProt O00767); test: Inhibition of Scd1 in human HEK293A cell microsomes assessed as conversion of [14C]stearate to [14C]oleate pretreated for 10 mins measured after 60 mins; set-up: species or system HEK293-A, Microsome
T3 sequence (O00767 whole entry): T1 sequence (whole entry)

[7] = molecular target: T3, Stearoyl-CoA desaturase; test: Inhibition of human Scd1 expressed in HEK293A cells assessed as conversion of [14C]stearate to [14C]oleate pretreated for 30 mins measured after 4 hrs; assay type: cell-based, HEK293-A
[8] = test system: Mus musculus; test: Inhibition of Scd1 in po dosed db/db mouse assessed as [14C]oleate to [14C]stearate ratio in liver administered 2 hrs before [14C]stearate challenge measured after 1 hr; assay type: functional; conditions: read-out: ID50 (the source's name)
[9] = test system: Rattus norvegicus; test: Reduction of plasma triglyceride level in Zucker fatty rat at 30 mg/kg, po qd for 7 days; assay type: functional; set-up: scale not given: the % may be the effect or the level left
[10] = AUC (0 to 8 hrs) in C57BL/6 mouse at 20 mg/kg, po; assay type: ADME, organism-based; set-up: time < 8 hr, dose 20 mg/kg, route oral; conditions: plasma
[11] = test system: Rattus norvegicus; test: Toxicity in Zucker fatty rat assessed as reduction of body weight at 30 mg/kg, po qd for 7 days; assay type: organism-based; set-up: dose 30 mg/kg, route oral; scale not given: the % may be the effect or the level left; conditions: in vivo, 168 h
[12] = test system: Rattus norvegicus; test: Toxicity in Zucker fatty rat assessed as induction of narrow eye fissure at 30 mg/kg, po qd for 7 days; assay type: organism-based; set-up: dose 30 mg/kg, route oral; conditions: in vivo, 168 h
[13] = test system: Rattus norvegicus; test: Reduction of plasma triglyceride level in po dosed Zucker fatty rat administered qd for 7 days; assay type: functional, organism-based
[14] = Clearance in C57BL/6 mouse at 5 mg/kg, iv; assay type: ADME, organism-based; set-up: dose 5 mg/kg, route intravenous; conditions: in vivo
[15] = test system: Rattus norvegicus; test: Reduction of plasma insulin level in Zucker fatty rat at 30 mg/kg, po qd for 7 days; assay type: functional, organism-based; set-up: dose 30 mg/kg
[16] = Volume of distribution in C57BL/6 mouse at 5 mg/kg, iv; assay type: ADME, organism-based; set-up: dose 5 mg/kg, route intravenous; conditions: in vivo
[17] = Cmax in C57BL/6 mouse at 20 mg/kg, po; assay type: ADME, organism-based; set-up: dose 20 mg/kg, route oral; conditions: in vivo
[18] = Oral bioavailability in C57BL/6 mouse at 20 mg/kg; assay type: ADME, organism-based; conditions: in vivo
[19] = Half life in C57BL/6 mouse at 5 mg/kg, iv; assay type: ADME, organism-based; set-up: dose 5 mg/kg, route intravenous; conditions: in vivo
[20] = Half life in C57BL/6 mouse at 20 mg/kg, po; assay type: ADME, organism-based; set-up: dose 20 mg/kg, route oral; conditions: in vivo
[21] = test system: Rattus norvegicus; test: Toxicity in Zucker fatty rat assessed as induction of cutaneous abnormalities at 30 mg/kg, po qd for 7 days; assay type: organism-based; set-up: dose 30 mg/kg, route oral; conditions: in vivo, 168 h
[22] = test system: Rattus norvegicus; test: Reduction of plasma glucose level in Zucker fatty rat at 30 mg/kg, po qd for 7 days; assay type: functional, organism-based; set-up: dose 30 mg/kg

SMILES	inhibition [1] [%]	pIC50 [5]	pIC50 [6]	pIC50 [7]	ED50 [8] [mg/kg]	other results
COc1ccccc1C(=O)C1CCN(c2ccc(C(=O)NCC(O)c3ccccc3)nn2)CC1 (stereo unspecified)	< 5	7.28	6.51	5.98		
O=C(NCCc1ccccc1)c1ccc(N2CCN(C(=O)c3ccccc3C(F)(F)F)CC2)cc1		6.82	6.09			
Cc1ccccc1C(=O)C1CCN(c2ccc(C(=O)NCC(O)c3ccc(F)cc3)nn2)CC1 (stereo unspecified)		8.15	8.30	7.66	14	
O=C(NCC(O)c1ccccc1)c1ccc(N2CCC(C(=O)c3ccccc3C(F)(F)F)CC2)nn1 (stereo unspecified)	9	8.70	8.15	7.85		remaining at 0.5 h [2]: 47%; solubility [3]: 84 µM (≈ 41.9 µg/mL); solubility [4]: < 0.5 µM
O=C(NCC(O)c1ccccc1)c1ccc(N2CCC(C(=O)c3ccc(F)cc3)CC2)nn1 (stereo unspecified)	12	7.13	6.93	7.10		
Cc1ccccc1C(=O)C1CCN(c2ccc(C(=O)NCC(O)c3ccccc3F)nn2)CC1 (stereo unspecified)		8.05	7.66	7.22	17	
Cc1ccccc1C(=O)C1CCN(c2ccc(C(=O)NCC(O)c3ccccn3)nn2)CC1 (stereo unspecified)		7.02	6.74	6.41		

Further lines, with some results ahead:

inhibition [1] [%]	pIC50 [5]	pIC50 [6]	pIC50 [7]	SMILES	ED50 [8] [mg/kg]	other results
< 5	8.30	8.00	6.99	O=C(NCC(O)c1ccccc1)c1ccc(N2CCC(C(=O)c3ccccc3OC(F)(F)F)CC2)nn1 (stereo unspecified)		remaining at 0.5 h [2]: 22%; solubility [3]: 83 µM (≈ 42.7 µg/mL); solubility [4]: < 0.5 µM
	8.15	7.36	7.60	Cc1ccccc1C(=O)C1CCN(c2ccc(C(=O)NCC(O)c3cccs3)nn2)CC1 (stereo unspecified)	14	
	6.71	7.00		O=C(NCCc1ccccc1)c1ccc(N2CCN(C(=O)c3ccccc3C(F)(F)F)CC2)nc1		
	7.43	7.55	7.37	Cc1ccccc1C(=O)C1CCN(c2ccc(C(=O)NCC(O)c3cccnc3)nn2)CC1 (stereo unspecified)	3	Activity [9]: 56%; AUC(0-t) at 8 h [10]: 7800 ng·h/mL; Activity [11]: 15%; Activity [12]: Non-toxic; Activity [13]: Dose-dependent effect; clearance [14]: 29 mL/min/kg; Activity [15]: inactive; Vd [16]: 2.4 L/kg; Cmax [17]: 6300 ng/mL; bioavailability [18]: 68%; remaining at 0.5 h [2]: 1.1%; half-life [19]: 78 min; half-life [20]: 54 min; solubility [3]: > 100 µM; solubility [4]: 29 µM (≈ 12.9 µg/mL); Activity [21]: Non-toxic; Activity [22]: inactive
	6.43	6.60		O=C(NCCc1ccccc1)c1ccc(N2CCN(C(=O)c3ccccc3C(F)(F)F)CC2)cn1		
	8.52	8.15	7.68	Cc1ccccc1C(=O)C1CCN(c2ccc(C(=O)NCC(O)c3ccsc3)nn2)CC1 (stereo unspecified)	16	
	8.30	8.22	7.96	Cc1ccccc1C(=O)C1CCN(c2ccc(C(=O)NCC(O)c3cccc(F)c3)nn2)CC1 (stereo unspecified)	14	
	7.47	6.73	6.84	Cc1ccccc1C(=O)C1CCN(c2ccc(C(=O)NCC(O)c3ccncc3)nn2)CC1 (stereo unspecified)		
< 5				Cc1ccccc1C(=O)C1CCN(c2ccc(C(=O)NCC(O)c3ccccc3)nn2)CC1 (stereo unspecified)	12	AUC(0-t) at 8 h [10]: 500 ng·h/mL; clearance [14]: 42 mL/min/kg; Vd [16]: 0.9 L/kg; Cmax [17]: 300 ng/mL; bioavailability [18]: 6%; remaining at 0.5 h [2]: 58%; half-life [19]: 36 min; half-life [20]: 48 min; solubility [3]: 88 µM (≈ 39.1 µg/mL); solubility [4]: 3 µM (≈ 1.33 µg/mL)
< 5	6.82	6.53	6.97	O=C(NCC(O)c1ccccc1)c1ccc(N2CCC(C(=O)c3ccccc3)CC2)nn1 (stereo unspecified)		
